Key:
[1] = target: T1, α6/3β2β3 nAChRs (Homo sapiens, UniProt Q15825)
[2] = target: T2, α3β4α5 nAChRs (Homo sapiens, UniProt P30926+P32297)
[3] = target: T1, α6/3β2β3 nAChRs; assay: cell-based; details: read-out: Agonist Effect Emax
[4] = target: T2, α3β4α5 nAChRs; assay: cell-based; details: read-out: Agonist Effect Emax
[5] = target: α4β2 nAChRs (Homo sapiens, UniProt P17787+P43681); assay: cell-based; type: cell-based
[6] = target: α7 nAChRs (Homo sapiens, UniProt P36544); type: cell-based
[7] = rat, in vivo; cited from earlier work

Sequence of α7 nAChRs (P36544 23-502): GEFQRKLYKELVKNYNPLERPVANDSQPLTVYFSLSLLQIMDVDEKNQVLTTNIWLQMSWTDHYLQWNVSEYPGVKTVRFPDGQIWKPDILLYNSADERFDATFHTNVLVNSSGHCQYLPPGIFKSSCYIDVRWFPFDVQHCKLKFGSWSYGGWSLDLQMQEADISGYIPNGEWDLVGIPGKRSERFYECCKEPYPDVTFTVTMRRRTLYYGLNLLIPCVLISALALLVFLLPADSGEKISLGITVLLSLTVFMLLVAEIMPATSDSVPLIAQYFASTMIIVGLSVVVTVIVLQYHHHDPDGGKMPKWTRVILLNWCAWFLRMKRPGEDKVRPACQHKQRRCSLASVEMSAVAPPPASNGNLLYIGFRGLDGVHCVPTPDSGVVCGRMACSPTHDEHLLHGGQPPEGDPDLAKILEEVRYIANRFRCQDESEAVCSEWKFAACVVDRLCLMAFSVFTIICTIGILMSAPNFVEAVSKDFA
T1 sequence (Q15825 26-239 limits assumed): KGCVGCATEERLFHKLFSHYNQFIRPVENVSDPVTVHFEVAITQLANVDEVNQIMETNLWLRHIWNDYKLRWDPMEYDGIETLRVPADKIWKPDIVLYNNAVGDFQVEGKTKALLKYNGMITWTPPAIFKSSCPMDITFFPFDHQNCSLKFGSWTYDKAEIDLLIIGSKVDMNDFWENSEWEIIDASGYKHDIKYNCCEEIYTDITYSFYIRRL
T1 sequence (P17787 26-238 limits assumed, further chain): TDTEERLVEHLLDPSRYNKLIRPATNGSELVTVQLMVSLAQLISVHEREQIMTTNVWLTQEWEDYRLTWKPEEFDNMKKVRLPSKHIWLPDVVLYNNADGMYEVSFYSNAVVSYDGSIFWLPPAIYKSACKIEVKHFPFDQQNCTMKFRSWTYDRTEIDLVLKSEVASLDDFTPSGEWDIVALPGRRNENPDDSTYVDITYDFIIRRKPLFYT
T1 sequence (Q05901 22-237 limits assumed, further chain): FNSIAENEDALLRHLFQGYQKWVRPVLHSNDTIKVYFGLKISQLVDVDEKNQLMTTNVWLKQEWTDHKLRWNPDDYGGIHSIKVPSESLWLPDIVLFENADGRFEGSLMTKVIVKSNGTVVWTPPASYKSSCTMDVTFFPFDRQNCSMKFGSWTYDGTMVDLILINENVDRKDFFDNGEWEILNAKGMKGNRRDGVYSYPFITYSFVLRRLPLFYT
T2 sequence (P32297 32-505): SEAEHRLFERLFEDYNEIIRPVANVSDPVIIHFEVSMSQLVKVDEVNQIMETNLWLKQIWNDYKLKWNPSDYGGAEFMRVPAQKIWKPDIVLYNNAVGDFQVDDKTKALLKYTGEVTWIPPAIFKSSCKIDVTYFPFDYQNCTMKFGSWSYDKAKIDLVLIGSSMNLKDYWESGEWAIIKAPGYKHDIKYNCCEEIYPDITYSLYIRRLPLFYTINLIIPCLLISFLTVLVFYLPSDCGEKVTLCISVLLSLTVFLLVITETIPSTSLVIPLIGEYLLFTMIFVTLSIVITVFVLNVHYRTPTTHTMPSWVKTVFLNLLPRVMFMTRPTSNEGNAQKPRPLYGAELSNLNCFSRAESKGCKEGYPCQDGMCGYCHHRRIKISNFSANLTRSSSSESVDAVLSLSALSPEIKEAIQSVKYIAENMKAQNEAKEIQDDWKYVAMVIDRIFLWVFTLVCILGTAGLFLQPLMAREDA
T2 sequence (P30926 22-498): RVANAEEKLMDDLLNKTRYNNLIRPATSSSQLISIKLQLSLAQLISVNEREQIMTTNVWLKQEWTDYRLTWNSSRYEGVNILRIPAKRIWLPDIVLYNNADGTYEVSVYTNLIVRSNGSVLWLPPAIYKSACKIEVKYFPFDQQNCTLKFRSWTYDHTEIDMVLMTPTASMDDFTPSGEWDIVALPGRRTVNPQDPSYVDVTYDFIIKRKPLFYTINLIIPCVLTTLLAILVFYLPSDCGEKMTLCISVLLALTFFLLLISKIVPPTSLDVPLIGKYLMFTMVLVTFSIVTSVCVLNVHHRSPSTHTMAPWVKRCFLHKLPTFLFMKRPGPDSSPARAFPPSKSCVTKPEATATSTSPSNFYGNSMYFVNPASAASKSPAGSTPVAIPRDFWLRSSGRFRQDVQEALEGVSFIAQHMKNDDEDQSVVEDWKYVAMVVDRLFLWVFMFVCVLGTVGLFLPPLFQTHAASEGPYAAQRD
T2 sequence (P30532 23-468 partner): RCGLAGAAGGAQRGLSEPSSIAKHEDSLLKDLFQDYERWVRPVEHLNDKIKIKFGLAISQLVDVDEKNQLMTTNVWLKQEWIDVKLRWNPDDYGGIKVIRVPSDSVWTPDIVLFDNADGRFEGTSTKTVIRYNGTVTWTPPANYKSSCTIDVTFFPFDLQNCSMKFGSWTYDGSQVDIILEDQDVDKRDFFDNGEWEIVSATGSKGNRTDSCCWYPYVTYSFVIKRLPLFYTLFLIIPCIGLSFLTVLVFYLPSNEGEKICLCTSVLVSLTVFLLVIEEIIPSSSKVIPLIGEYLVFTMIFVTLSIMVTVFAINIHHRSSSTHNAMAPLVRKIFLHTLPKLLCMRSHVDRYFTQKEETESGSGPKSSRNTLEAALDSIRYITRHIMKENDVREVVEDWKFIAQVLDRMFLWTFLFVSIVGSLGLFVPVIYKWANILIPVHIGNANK
Sequence of α4β2 nAChRs (P43681 29-627 limits assumed): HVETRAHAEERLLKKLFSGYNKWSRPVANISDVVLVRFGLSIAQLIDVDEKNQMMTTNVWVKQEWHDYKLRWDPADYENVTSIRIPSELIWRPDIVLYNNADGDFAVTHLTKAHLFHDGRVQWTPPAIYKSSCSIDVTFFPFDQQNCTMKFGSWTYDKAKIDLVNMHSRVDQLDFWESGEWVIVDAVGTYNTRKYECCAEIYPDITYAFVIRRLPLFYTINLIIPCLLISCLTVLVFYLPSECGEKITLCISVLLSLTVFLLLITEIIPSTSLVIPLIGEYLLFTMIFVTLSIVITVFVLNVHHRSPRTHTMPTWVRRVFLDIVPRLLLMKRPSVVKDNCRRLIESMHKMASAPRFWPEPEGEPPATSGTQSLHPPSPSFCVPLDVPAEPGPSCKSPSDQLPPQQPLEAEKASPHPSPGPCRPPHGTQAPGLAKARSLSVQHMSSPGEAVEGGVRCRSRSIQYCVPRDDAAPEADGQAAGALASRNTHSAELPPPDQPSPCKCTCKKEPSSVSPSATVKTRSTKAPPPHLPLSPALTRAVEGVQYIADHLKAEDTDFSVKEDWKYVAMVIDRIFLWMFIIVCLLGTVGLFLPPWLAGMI
Sequence of α4β2 nAChRs (P17787 26-502): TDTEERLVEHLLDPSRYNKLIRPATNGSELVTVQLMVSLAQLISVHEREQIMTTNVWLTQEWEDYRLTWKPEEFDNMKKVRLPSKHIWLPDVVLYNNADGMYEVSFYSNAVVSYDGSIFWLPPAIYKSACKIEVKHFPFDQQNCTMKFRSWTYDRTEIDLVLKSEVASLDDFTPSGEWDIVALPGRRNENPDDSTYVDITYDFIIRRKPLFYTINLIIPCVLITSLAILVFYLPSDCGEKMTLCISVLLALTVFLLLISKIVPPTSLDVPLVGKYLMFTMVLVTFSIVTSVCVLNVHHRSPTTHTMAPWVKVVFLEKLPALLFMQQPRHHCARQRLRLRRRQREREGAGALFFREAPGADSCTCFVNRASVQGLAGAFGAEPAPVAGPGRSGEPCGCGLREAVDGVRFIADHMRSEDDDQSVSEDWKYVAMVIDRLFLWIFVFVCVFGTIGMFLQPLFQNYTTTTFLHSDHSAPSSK

Structure (SMILES) | Agonist Effect Hillslope [1] | Antagonist Effect Hillslope [1] | Agonist Effect Hillslope [2] | Antagonist Effect Hillslope [2] | Emax [3] | Emax [4] | Agonist Effect Hillslope [5] | Antagonist Effect Hillslope [5] | Agonist Effect Hillslope [6] | Antagonist Effect Hillslope [6] | Agonist Effect Emax [1] | Agonist Effect Emax [2] | carcinogenicity [7] | agonist character at human α4β2 nAChRs [5] | Emax ([5]; read-out: Agonist Effect Emax) | agonist character at human α7 nAChRs [6] | agonist character at human α6/3β2β3 nAChRs [1] | agonist character at human α3β4α5 nAChRs [2]
CN1CCCC1c1cccnc1 (racemic) [Synthetic RS racemic nicotine, RS-Nicotine] | −0.67 | 1.36 | −2.13 | 1.52 | 91% | 65% | – | – | – | – | – | – | – | – | – | – | – | –
CN1CCCC1c1cccnc1 (stereo not drawn) [Ref. nicotine (Sigma-Aldrich), nicotine] | −0.74 | 0.72 | −1.48 | 1.59 | 100% | 100% | −0.80 | 0.85 | −2.23 | – | – | – | – | – | – | – | – | –
CN1CCC[C@H]1c1cccnc1 [Sigma-Aldrich S nicotine, S nicotine] | −0.69 | 0.96 | −1.91 | 1.38 | – | – | −0.84 | 0.94 | −2.49 | 2.76 | 100% | 84% | – | – | – | – | – | –
CN1CCCC1c1cccnc1 (stereo not drawn) [synthetic nicotine, nicotine] | – | – | – | – | – | – | – | – | – | – | – | – | not carcinogenic | – | – | – | – | –
CN1CCC[C@H]1c1cccnc1 [Synthetic S nicotine, S nicotine] | −0.70 | 1.10 | −1.48 | 1.11 | 97% | 96% | – | – | – | – | – | – | – | – | – | – | – | –
CN1CCC[C@H]1c1cccnc1 [Alchem S nicotine, S nicotine] | −0.81 | 0.97 | −1.46 | 1.34 | – | – | −0.81 | 1.01 | −3.15 | 3.06 | 95% | 87% | – | – | – | – | – | –
CN1CCC[C@@H]1c1cccnc1 [Synthetic R nicotine, R nicotine] | −0.92 | 1.07 | −2.37 | 0.95 | 70% | 21% | −0.87 | 0.67 | −2.37 | 2.55 | – | – | – | partial agonist | 28% | full, weak agonist | full, weak agonist | partial, weak agonist

Source: patent US10610526B2 (priority 2015, dated 2020)
